# Test results from PubChem BioAssay AID1996.
# Conditions: buffer; pH 7.4; 200.0 µM
row,SMILES,solubility kinetic [µg/mL]
1,O=C(COC(=O)/C=C/c1ccc(Cl)c(Cl)c1)NC1CC1,4.4
2,COc1cc(OC)c(C(=O)Nc2ccncc2)cc1OC,42.6
3,CC(=O)COC(=O)c1ccc2noc(-c3ccccc3)c2c1,8
4,CC(=O)c1ccc(NC(=O)NCc2ccc(F)cc2)cc1,7.8
5,CN1CCN(CC/C=C2/c3ccccc3Sc3ccc(S(=O)(=O)N(C)C)cc32)CC1,> 66.5
6,Cc1cccc(NC(=O)N2CCC(NC(=O)c3ccco3)CC2)c1,> 49.1
7,c1ccc(Nc2nc(NCCN3CCOCC3)nc(Nc3ccccc3)n2)cc1,36
8,COc1ccccc1N1CC(C(=O)NC2CCCCCC2)CC1=O (centres undefined),> 49.6
9,CCOc1ccccc1C(=O)NCC(=O)N(C)Cc1ccccc1C,> 51.1
10,Cc1ccc(S(=O)(=O)Nc2ccncc2)c(C)c1.Cl,> 44.8
11,COc1cc2c(cc1OC)C(C)N(C(=O)c1ccc(C)o1)CC2 (centres undefined),> 47.3
12,O=C(c1cc2ccccc2cc1O)N1CCCC1,> 36.2
13,O=S(=O)(c1c(Cl)sc(Cl)c1Br)N1CCCC1,4.4
14,CCOc1ccc(C(C)=O)cc1Cn1c(=O)oc2ccccc21,13.7
15,CCN1C/C(=N\S(=O)(=O)/N=C2\CN(CC)C(=O)N2CC)N(CC)C1=O,> 55.9
16,O=C(Nc1ccc(Br)cn1)c1cccc(S(=O)(=O)N2CCCC2)c1,5.7
17,Cc1c(CNCCc2ccccc2)c(C(=O)O)c(C)n1-c1ccccc1,> 52.3
18,CC(SCC(=O)O)c1nc2ccccc2[nH]1 (centres undefined),> 35.4
19,CNC(=O)CSc1nnc(-c2ccc3c(c2)OCO3)n1C,> 46
20,CCCC[N+]1(C)[C@@H]2CC(OC(=O)[C@H](CO)c3ccccc3)C[C@H]1[C@@H]1O[C@@H]12.[Br-] (some centres undefined),> 66.1

row,SMILES,solubility kinetic [µg/mL]
1,CC(=O)N(Cc1cc(=O)[nH]c2ccccc12)c1ccccc1C,43.6
2,NC(=O)c1ccccc1NC(=O)c1ccc2ccccc2c1,< 0.3
3,COc1ccc(CCC(=O)NCCOc2ccc(C)cc2)cc1,24
4,CCn1ccc(C(=O)Nc2ncc(C)s2)n1,> 35.4
5,COC(=O)c1ccc(CO/N=C/c2ccc(OC)cc2)o1,13.9
6,Cc1ccc(OCCN2CCCC2)cc1.O=C(O)C(=O)O,> 44.3
7,CN(C)C(CNC(=O)c1ccco1)c1cccs1 (centres undefined),> 39.7
8,COc1ccc(-c2cc(C(=O)Nc3ccc(F)cc3F)no2)cc1,< 0.4
9,C/C(=N\OC(=O)c1ccc(C)cc1)c1c(C)nc2cc(C)ccn12,6.6
10,Cc1ccc(NS(=O)(=O)c2ccc(C(C)C)cc2)cc1S(=O)(=O)N1CCOCC1,27.4
11,O=C(Cc1ccc([N+](=O)[O-])cc1)Nc1cccnc1,> 38.6
12,CCN1CCN(C(=S)NC(=O)c2cccc(Br)c2)CC1,> 53.4
13,COCCCNC(=S)Nc1c(C)cc(C)cc1C,37.2
14,O=C(Nc1nnc(C2CC2)s1)C1COc2ccccc2O1 (centres undefined),> 45.5
15,CCOc1ccc(C(=O)n2cc(C(=O)OC)c3ccccc32)cc1,< 0.7
16,CC(=O)Nc1cc([As](=O)(O)O)ccc1O,> 41.3
17,O=C(Nc1ccc(F)c(F)c1)c1ccco1,> 33.5
18,Clc1ncc(CSc2ccccc2)s1,2.3
19,CC1CCN(CCc2nc3cc(NC(=O)C(C)C)ccc3n2C)CC1,36.7
20,CCN(CC)CCCNC(=O)c1cc(-c2ccc3c(c2)OCO3)on1,49.4

row,SMILES,solubility kinetic [µg/mL]
1,O=C(O)c1c2c(nc3ccccc13)/C(=C/c1cccc([N+](=O)[O-])c1)CCC2,> 54.1
2,O=C(CSc1nccc(-c2cccs2)n1)Nc1ccccc1,2.3
3,O=C(NC1CCCCC1)c1ccc(-c2ccccc2)cc1,< 0.6
4,CC(C)[C@H](NC(=O)c1ccccc1F)C(=O)NCCc1ccccc1,26.4
5,C#Cc1ccc(C(=O)NCc2ccc(N3CCCC3=O)cc2)cc1,14.6
6,C#CC(CCN1CCCCC1)(OC)c1ccccc1.Cl (centres undefined),27.2
7,CC(C)CCOc1ccc(C2(C)NC(=O)NC2=O)cc1 (centres undefined),38.5
8,O=C(Nc1ccccc1C(=O)N1CCCCC1)NC1CCCCC1,> 49.4
9,O=C(CNC(=O)c1ccco1)Nc1cccc(Cl)c1,18.9
10,CCCC(=O)N1CC(=O)Nc2ccc(C)cc2C1c1ccccc1 (centres undefined),> 48.4
11,COc1ccc(NC(=O)N2CCCc3ccccc32)cc1OC,> 46.9
12,COc1ccc(N2C(=O)CC(C)(C)CC2=O)cc1OC,> 41.6
13,O=[N+]([O-])c1ccc(-c2nc(C(Cl)Cl)c3ccccc3n2)cc1,0.5
14,Cc1cccc(C(=O)O/N=C(\N)c2ccccn2)c1,> 38.3
15,O=c1c2c([N+](=O)[O-])cc([N+](=O)[O-])cc2nc2ccccn12,3.2
16,O=c1cc(CO)oc(C(Nc2ccccn2)c2ccccc2Cl)c1O (centres undefined),> 53.8
17,O=C(C1CCN(S(=O)(=O)c2cccs2)CC1)N1CCCCC1,> 51.4
18,CC(=O)c1c(C)[nH]c(C(=O)CN(C)CC(=O)Nc2ccccc2Cl)c1C,> 56.4
19,CN(C)/C=C(\C#N)S(=O)(=O)c1ccccc1,> 35.4
